Test results: ChEMBL document CHEMBL1201862, “PubChem BioAssay data set” (2004)
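In this assay, cells in 96-well plates receive the compound at five concentrations for 48 hours. Endpoints are linearly interpolated between the surrounding concentrations. Abbreviation: GI50, concentration required for 50% inhibition of growth.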 The source made the active and inactive calls. No stated cut-off is given here; in the data, active = GI50 up to about 1.1 µM and inactive = higher.

Key:
Assay in all cases: NCI anticancer screen, dose series, 48 h
Hs-578T = system: Hs-578T
KM12 = system: KM12
MDA-MB-435 = system: MDA-MB-435
HOP-92 = system: HOP-92
HOP-62 = system: HOP-62
UACC-257 = system: UACC-257
A549 = system: A549
SR = system: SR
OVCAR-8 = system: OVCAR-8
IGROV-1 = system: IGROV-1
786-0 = system: 786-0
SK-MEL-2 = system: SK-MEL-2
CAKI-1 = system: CAKI-1
OVCAR-3 = system: OVCAR-3
SF-268 = system: SF-268
HT-29 = system: HT-29
UO-31 = system: UO-31
PC-3 = system: PC-3
NCI/ADR-RES = system: NCI/ADR-RES
SF-295 = system: SF-295
NCI-H226 = system: NCI-H226
OVCAR-4 = system: OVCAR-4
HCT-116 = system: HCT-116
HL-60 = system: HL-60
K562 = system: K562
Malme-3M = system: Malme-3M
HCT-15 = system: HCT-15
NCI-H460 = system: NCI-H460
TK-10 = system: TK-10
T47D = system: T47D
OVCAR-5 = system: OVCAR-5
UACC-62 = system: UACC-62
MDA-N = system: MDA-N
BT-549 = system: BT-549
ACHN = system: ACHN
RXF 393 = system: RXF 393
SW-620 = system: SW-620
LOX IMVI = system: LOX IMVI
MOLT-4 = system: MOLT-4
RPMI-8226 = system: RPMI-8226
EKVX = system: EKVX
SNB-19 = system: SNB-19
MCF7 = system: MCF7
SK-MEL-28 = system: SK-MEL-28
CCRF-CEM = system: CCRF-CEM
NCI-H23 = system: NCI-H23
SK-MEL-5 = system: SK-MEL-5
SN12C = system: SN12C
MDA-MB-231 = system: MDA-MB-231
NCI-H522 = system: NCI-H522
U-251 = system: U-251
M14 = system: M14
DU-145 = system: DU-145
SF-539 = system: SF-539
SNB-75 = system: SNB-75
SK-OV-3 = system: SK-OV-3
COLO 205 = system: COLO 205
HCC 2998 = system: HCC 2998
A498 = system: A498

C=C1C[C@@H](O)[C@@H](Br)C(C)(C)[C@@]12C=CC(O)(CBr)CC2 (some centres undefined)
GI50 (Hs-578T): 45.6 µM (inactive)
GI50 (KM12): 1.6 µM (inactive)
GI50 (MDA-MB-435): 66.5 µM (inactive)
GI50 (HOP-92): 13.6 µM (inactive)
GI50 (HOP-62): > 100 µM (inactive)
GI50 (UACC-257): > 100 µM (inactive)
GI50 (A549): > 100 µM (inactive)
GI50 (SR): 14.8 µM (inactive)
GI50 (OVCAR-8): > 100 µM (inactive)
GI50 (IGROV-1): 89.3 µM (inactive)
GI50 (786-0): > 100 µM (inactive)
GI50 (SK-MEL-2): 86.3 µM (inactive)
GI50 (CAKI-1): > 100 µM (inactive)
GI50 (OVCAR-3): > 100 µM (inactive)
GI50 (SF-268): 50 µM (inactive)
GI50 (HT-29): 47.6 µM (inactive)
GI50 (UO-31): > 100 µM (inactive)
GI50 (PC-3): 1.48 µM (inactive)
GI50 (NCI/ADR-RES): 0.0191 µM (active)
GI50 (SF-295): > 100 µM (inactive)
GI50 (NCI-H226): > 100 µM (inactive)
GI50 (OVCAR-4): > 100 µM (inactive)
GI50 (HCT-116): > 100 µM (inactive)
GI50 (HL-60): 35.4 µM (inactive)
GI50 (K562): 55.8 µM (inactive)
GI50 (Malme-3M): > 100 µM (inactive)
GI50 (HCT-15): > 100 µM
GI50 (NCI-H460): 66.4 µM (inactive)
GI50 (TK-10): > 100 µM (inactive)
GI50 (T47D): > 100 µM (inactive)
GI50 (OVCAR-5): 13.7 µM (inactive)
GI50 (UACC-62): 43.3 µM (inactive)
GI50 (MDA-N): > 100 µM (inactive)
GI50 (BT-549): 29.9 µM (inactive)
GI50 (ACHN): > 100 µM (inactive)
GI50 (RXF 393): 43.3 µM (inactive)
GI50 (SW-620): > 100 µM (inactive)
GI50 (LOX IMVI): 36.1 µM (inactive)
GI50 (MOLT-4): 21.4 µM (inactive)
GI50 (RPMI-8226): 24.9 µM (inactive)
GI50 (EKVX): 6.98 µM (inactive)
GI50 (SNB-19): 88.9 µM (inactive)
GI50 (MCF7): 59.6 µM (inactive)
GI50 (SK-MEL-28): > 100 µM (inactive)
GI50 (CCRF-CEM): 28.1 µM (inactive)
GI50 (NCI-H23): 94 µM (inactive)
GI50 (SK-MEL-5): 76.7 µM (inactive)
GI50 (SN12C): > 100 µM (inactive)
GI50 (MDA-MB-231): 29 µM (inactive)
GI50 (NCI-H522): 62.4 µM (inactive)
GI50 (U-251): 63.4 µM (inactive)
GI50 (M14): > 100 µM (inactive)
GI50 (DU-145): > 100 µM (inactive)

COc1cc2c(cc1OC)-c1cc3ccccc3c(=O)n1CCC2
GI50 (Hs-578T): 14.8 µM (inactive)
GI50 (KM12): 8.47 µM (inactive)
GI50 (MDA-MB-435): 5.69 µM (inactive)
GI50 (HOP-92): 15.4 µM (inactive)
GI50 (HOP-62): 12 µM (inactive)
GI50 (UACC-257): 19.8 µM (inactive)
GI50 (A549): 8.28 µM (inactive)
GI50 (OVCAR-8): 9.35 µM (inactive)
GI50 (IGROV-1): 7.48 µM (inactive)
GI50 (786-0): 6.97 µM (inactive)
GI50 (SK-MEL-2): 29.3 µM (inactive)
GI50 (CAKI-1): 7.85 µM (inactive)
GI50 (OVCAR-3): 15.9 µM (inactive)
GI50 (SF-268): 13.3 µM (inactive)
GI50 (HT-29): 4.17 µM (inactive)
GI50 (UO-31): 13 µM (inactive)
GI50 (PC-3): 8.51 µM (inactive)
GI50 (NCI/ADR-RES): 5.27 µM (inactive)
GI50 (SF-295): 11.1 µM (inactive)
GI50 (NCI-H226): 12.6 µM (inactive)
GI50 (OVCAR-4): 24.6 µM (inactive)
GI50 (HCT-116): 3.94 µM (inactive)
GI50 (SF-539): 2.94 µM (inactive)
GI50 (HL-60): 2.58 µM (inactive)
GI50 (K562): 3.21 µM (inactive)
GI50 (SNB-75): 19.1 µM (inactive)
GI50 (SK-OV-3): 7.31 µM (inactive)
GI50 (Malme-3M): 20 µM (inactive)
GI50 (HCT-15): 2.07 µM
GI50 (NCI-H460): 1.76 µM (inactive)
GI50 (TK-10): 16.3 µM (inactive)
GI50 (T47D): 17.9 µM (inactive)
GI50 (COLO 205): 8.47 µM (inactive)
GI50 (OVCAR-5): 45.7 µM (inactive)
GI50 (UACC-62): 11.4 µM (inactive)
GI50 (MDA-N): 3.56 µM (inactive)
GI50 (BT-549): 13.1 µM (inactive)
GI50 (ACHN): 13.4 µM (inactive)
GI50 (HCC 2998): 13.7 µM (inactive)
GI50 (RXF 393): 5.02 µM (inactive)
GI50 (SW-620): 8.32 µM (inactive)
GI50 (LOX IMVI): 2.66 µM (inactive)
GI50 (MOLT-4): 1.89 µM (inactive)
GI50 (RPMI-8226): 7.91 µM (inactive)
GI50 (A498): 6.62 µM (inactive)
GI50 (EKVX): 21.9 µM (inactive)
GI50 (SNB-19): 18 µM (inactive)
GI50 (MCF7): 7.71 µM (inactive)
GI50 (SK-MEL-28): 17.9 µM (inactive)
GI50 (CCRF-CEM): 6.73 µM (inactive)
GI50 (NCI-H23): 19.7 µM (inactive)
GI50 (SK-MEL-5): 11.4 µM (inactive)
GI50 (SN12C): 13.1 µM (inactive)
GI50 (MDA-MB-231): 5.47 µM (inactive)
GI50 (NCI-H522): 9.25 µM (inactive)
GI50 (U-251): 6.49 µM (inactive)
GI50 (M14): 14.8 µM (inactive)
GI50 (DU-145): 10.7 µM (inactive)

COc1ccc(C2SCC(=O)N2c2ccc(-c3ccc(-n4c(-c5ccccc5)nc5ccccc5c4=O)cc3)cc2)cc1OC (centres undefined)
GI50 (Hs-578T): 69.5 µM (inactive)
GI50 (KM12): 7.85 µM (inactive)
GI50 (MDA-MB-435): 33.3 µM (inactive)
GI50 (HOP-92): > 100 µM (inactive)
GI50 (HOP-62): 18 µM (inactive)
GI50 (UACC-257): 61.5 µM (inactive)
GI50 (A549): 27.9 µM (inactive)
GI50 (SR): 26.2 µM (inactive)
GI50 (OVCAR-8): 27.5 µM (inactive)
GI50 (IGROV-1): 37.7 µM (inactive)
GI50 (786-0): 44.4 µM (inactive)
GI50 (CAKI-1): 88.5 µM (inactive)
GI50 (OVCAR-3): 26.5 µM (inactive)
GI50 (SF-268): 43.5 µM (inactive)
GI50 (HT-29): 45.2 µM (inactive)
GI50 (UO-31): 44.2 µM (inactive)
GI50 (PC-3): 42 µM (inactive)
GI50 (NCI/ADR-RES): 61.2 µM (inactive)
GI50 (SF-295): 16.8 µM (inactive)
GI50 (NCI-H226): 52.7 µM (inactive)
GI50 (OVCAR-4): > 100 µM (inactive)
GI50 (HCT-116): 67.8 µM (inactive)
GI50 (SF-539): 30.5 µM (inactive)
GI50 (HL-60): 30.8 µM (inactive)
GI50 (K562): 23.3 µM (inactive)
GI50 (SNB-75): 64.1 µM (inactive)
GI50 (SK-OV-3): 40.3 µM (inactive)
GI50 (Malme-3M): 81.8 µM (inactive)
GI50 (HCT-15): > 100 µM
GI50 (NCI-H460): 32.8 µM (inactive)
GI50 (TK-10): 25.2 µM (inactive)
GI50 (T47D): 22.4 µM (inactive)
GI50 (COLO 205): 18.4 µM (inactive)
GI50 (UACC-62): 29.2 µM (inactive)
GI50 (MDA-N): 59.7 µM (inactive)
GI50 (BT-549): 18.5 µM (inactive)
GI50 (RXF 393): > 100 µM (inactive)
GI50 (SW-620): 73.5 µM (inactive)
GI50 (LOX IMVI): 17.8 µM (inactive)
GI50 (MOLT-4): 22.4 µM (inactive)
GI50 (RPMI-8226): 31.7 µM (inactive)
GI50 (A498): > 100 µM (inactive)
GI50 (EKVX): 81.8 µM (inactive)
GI50 (SNB-19): 84.5 µM (inactive)
GI50 (MCF7): 27.7 µM (inactive)
GI50 (SK-MEL-28): 57 µM (inactive)
GI50 (CCRF-CEM): 20 µM (inactive)
GI50 (NCI-H23): > 100 µM (inactive)
GI50 (SN12C): > 100 µM (inactive)
GI50 (MDA-MB-231): 25.8 µM (inactive)
GI50 (U-251): 43.8 µM (inactive)
GI50 (M14): 52.7 µM (inactive)
GI50 (DU-145): 98.2 µM (inactive)
